Laboratory results taken from US10660877B2 (BRISTOL-MYERS SQUIBB COMPANY, priority 2016, dated 2020).
Where two headings read alike, the source gives them in different places.

Tests used:
human TLR9 = human TLR9 (Homo sapiens (Human), UniProt Q9NR96); assay: TLR9 inhibition reporter assay (HEK-Blue cells, SEAP reporter, ODN2006 stimulation);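 further: compounds tested over 0.05 nM to 50 µM, 22 h incubation, inhibition taken as SEAP signal drop from agonist plus DMSO wells toward a known inhibitor control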
Sequence of human TLR9 (Q9NR96 26-1032): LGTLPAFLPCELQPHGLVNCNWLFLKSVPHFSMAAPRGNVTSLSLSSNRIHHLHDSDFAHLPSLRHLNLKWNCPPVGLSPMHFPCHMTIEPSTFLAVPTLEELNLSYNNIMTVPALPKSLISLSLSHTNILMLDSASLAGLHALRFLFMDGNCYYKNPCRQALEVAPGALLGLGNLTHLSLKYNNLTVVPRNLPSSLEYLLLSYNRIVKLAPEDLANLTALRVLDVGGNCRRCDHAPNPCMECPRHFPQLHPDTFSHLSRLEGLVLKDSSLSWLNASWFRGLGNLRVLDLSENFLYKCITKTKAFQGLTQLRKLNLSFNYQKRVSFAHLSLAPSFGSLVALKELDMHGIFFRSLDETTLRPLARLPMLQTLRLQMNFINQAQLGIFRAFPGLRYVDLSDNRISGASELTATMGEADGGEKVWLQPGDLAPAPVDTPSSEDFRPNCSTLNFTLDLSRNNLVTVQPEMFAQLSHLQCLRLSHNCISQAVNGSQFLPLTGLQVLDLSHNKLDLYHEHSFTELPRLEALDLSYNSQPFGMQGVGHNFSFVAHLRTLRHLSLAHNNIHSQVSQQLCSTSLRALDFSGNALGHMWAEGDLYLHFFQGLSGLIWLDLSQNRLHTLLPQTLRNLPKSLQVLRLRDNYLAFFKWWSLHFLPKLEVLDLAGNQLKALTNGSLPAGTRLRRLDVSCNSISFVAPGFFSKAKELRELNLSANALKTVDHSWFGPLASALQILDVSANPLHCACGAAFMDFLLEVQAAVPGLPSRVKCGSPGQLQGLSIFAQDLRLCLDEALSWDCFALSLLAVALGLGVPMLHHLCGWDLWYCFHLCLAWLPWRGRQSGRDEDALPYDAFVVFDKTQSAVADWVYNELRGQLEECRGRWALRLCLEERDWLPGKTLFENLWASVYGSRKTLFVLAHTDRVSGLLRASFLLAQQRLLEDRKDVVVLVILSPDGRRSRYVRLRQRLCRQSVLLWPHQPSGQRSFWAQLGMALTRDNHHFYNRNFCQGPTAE

human TLR7 = human TLR7 (Homo sapiens (Human), UniProt Q9NYK1); assay: TLR7 inhibition reporter assay (HEK-Blue cells, SEAP reporter, gardiquimod stimulation); format: cell-based
Sequence of human TLR7 (Q9NYK1 27-1049): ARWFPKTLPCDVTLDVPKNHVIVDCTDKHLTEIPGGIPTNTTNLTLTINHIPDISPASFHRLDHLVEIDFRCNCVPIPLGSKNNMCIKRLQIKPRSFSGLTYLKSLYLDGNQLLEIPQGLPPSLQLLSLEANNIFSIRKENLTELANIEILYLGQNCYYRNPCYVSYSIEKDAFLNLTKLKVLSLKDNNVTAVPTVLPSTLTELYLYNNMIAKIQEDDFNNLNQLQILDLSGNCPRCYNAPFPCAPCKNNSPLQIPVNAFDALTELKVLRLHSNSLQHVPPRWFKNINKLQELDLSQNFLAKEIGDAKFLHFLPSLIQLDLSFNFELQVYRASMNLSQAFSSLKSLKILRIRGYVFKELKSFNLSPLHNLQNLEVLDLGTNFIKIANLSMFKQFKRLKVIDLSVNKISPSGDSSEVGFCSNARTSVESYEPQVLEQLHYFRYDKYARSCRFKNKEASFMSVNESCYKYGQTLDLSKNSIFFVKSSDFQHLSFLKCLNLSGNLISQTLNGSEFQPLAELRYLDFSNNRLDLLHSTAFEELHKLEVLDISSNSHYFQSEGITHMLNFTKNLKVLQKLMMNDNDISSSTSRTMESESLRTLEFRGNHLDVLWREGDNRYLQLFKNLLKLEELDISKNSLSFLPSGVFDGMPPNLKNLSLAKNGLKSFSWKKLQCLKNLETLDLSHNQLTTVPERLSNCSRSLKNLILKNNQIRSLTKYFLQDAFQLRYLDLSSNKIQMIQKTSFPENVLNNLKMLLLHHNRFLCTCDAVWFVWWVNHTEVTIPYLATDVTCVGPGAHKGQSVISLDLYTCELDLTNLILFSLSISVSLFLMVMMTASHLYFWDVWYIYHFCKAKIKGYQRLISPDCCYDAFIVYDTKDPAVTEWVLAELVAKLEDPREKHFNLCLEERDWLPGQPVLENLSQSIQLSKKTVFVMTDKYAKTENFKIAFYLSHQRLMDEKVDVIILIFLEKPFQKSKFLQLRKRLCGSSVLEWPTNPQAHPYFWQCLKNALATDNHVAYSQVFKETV

human TLR8 = human TLR8 (Homo sapiens (Human), UniProt Q9NR97); assay: TLR8 inhibition reporter assay (HEK-Blue cells, SEAP reporter, R848 stimulation);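 further: compounds tested from 0.05 nM to 50 µM, 22 h at 37 °C, SEAP measured with HEK-Blue Detection, inhibition relative to agonist plus DMSO versus a known inhibitor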
Sequence of human TLR8 (Q9NR97 27-1041): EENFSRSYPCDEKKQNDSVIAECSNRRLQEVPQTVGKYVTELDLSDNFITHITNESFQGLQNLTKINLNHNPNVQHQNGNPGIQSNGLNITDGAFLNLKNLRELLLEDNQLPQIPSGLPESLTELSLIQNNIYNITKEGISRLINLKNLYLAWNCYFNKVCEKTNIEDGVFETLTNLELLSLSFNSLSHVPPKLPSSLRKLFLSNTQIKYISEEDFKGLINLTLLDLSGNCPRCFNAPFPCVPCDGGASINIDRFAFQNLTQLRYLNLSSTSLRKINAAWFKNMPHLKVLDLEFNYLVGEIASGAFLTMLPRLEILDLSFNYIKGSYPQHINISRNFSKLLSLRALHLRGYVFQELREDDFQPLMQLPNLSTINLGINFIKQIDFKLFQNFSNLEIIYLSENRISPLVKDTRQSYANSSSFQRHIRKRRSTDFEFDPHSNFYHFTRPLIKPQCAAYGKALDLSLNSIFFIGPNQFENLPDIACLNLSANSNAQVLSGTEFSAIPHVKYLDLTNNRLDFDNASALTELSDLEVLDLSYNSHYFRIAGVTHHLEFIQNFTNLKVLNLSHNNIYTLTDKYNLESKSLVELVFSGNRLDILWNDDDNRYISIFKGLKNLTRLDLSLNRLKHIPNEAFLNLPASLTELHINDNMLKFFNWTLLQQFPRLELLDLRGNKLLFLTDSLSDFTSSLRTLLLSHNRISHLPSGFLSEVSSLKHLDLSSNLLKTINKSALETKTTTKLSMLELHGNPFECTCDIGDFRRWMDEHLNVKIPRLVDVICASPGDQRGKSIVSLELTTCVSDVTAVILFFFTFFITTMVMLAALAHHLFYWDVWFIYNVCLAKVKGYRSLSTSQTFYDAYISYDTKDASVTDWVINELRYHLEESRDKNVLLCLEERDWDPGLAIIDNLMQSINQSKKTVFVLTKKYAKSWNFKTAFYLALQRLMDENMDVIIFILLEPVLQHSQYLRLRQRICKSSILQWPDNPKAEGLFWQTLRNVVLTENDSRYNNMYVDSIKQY

[1] = read-out: TLR9 IC50, HEK-Blue cells overexpressing human TLR9, ODN2006 5 nM
[2] = HEK-Blue cells overexpressing human TLR7, gardiquimod 7.5 μM
[3] = read-out: TLR8 IC50, HEK-Blue cells overexpressing human TLR8, R848 15.9 μM
[4] = read-out: TLR9 IC50, HEK-Blue cells, ODN2006 5 nM
[5] = HEK-Blue cells, gardiquimod 7.5 μM
[6] = read-out: TLR8 IC50, HEK-Blue cells, R848 15.9 μM

IC50 (human TLR9; [1]) [nM] | IC50 (human TLR7; [2]) [nM] | IC50 (human TLR8; [3]) [nM] | IC50 (human TLR9; [4]) [nM] | IC50 (human TLR7; [5]) [nM] | IC50 (human TLR8; [6]) [nM] | SMILES
692 | 5.1 | 18.6 | – | – | – | Cc1cc(-c2[nH]c3ccc(C4CCN(C(=O)C5CCNC5)CC4)cc3c2C(C)C)ccn1 (stereo not drawn) [Example 572, (4-(3-isopropyl-2-(2-methylpyridin-4-yl)-1H-indol-5-yl)piperidin-1-yl)(pyrrolidin-3-yl)methanone]
271 | 4.9 | 11.1 | – | – | – | Cc1cc(-c2[nH]c3ccc(C4CCN(CC(=O)N(C)CC(C)(C)O)CC4)cc3c2C(C)C)cc(C)n1 [Example 305, 2-(4-(2-(2,6-dimethylpyridin-4-yl)-3-isopropyl-1H-indol-5-yl)piperidin-1-yl)-N-(2-hydroxy-2-methylpropyl)-N-methylacetamide]
1220 | 3.7 | 3.6 | – | – | – | Cc1cc(-c2[nH]c3ccc(C4CCN(C5CCS(=O)(=O)CC5)CC4)cc3c2C(C)C)cc(C)n1 [Example 459, 4-(4-(2-(2,6-dimethylpyridin-4-yl)-3-isopropyl-1H-indol-5-yl)piperidin-1-yl)tetrahydro-2H-thiopyran 1,1-dioxide]
45 | 613 | 114 | – | – | – | CCc1c(-c2ccnc(N)c2)[nH]c2ccc(C3CCN(C4CCN(CC(C)C)CC4)CC3)cc12 [Example 773, 4-(3-ethyl-5-(1′-isobutyl-[1,4′-bipiperidin]-4-yl)-1H-indol-2-yl)pyridin-2-amine]
– | – | – | 1690 | 10.4 | 0.7 | Cc1cc(-c2[nH]c3ccc(C4CCN(CC(C)(C)O)CC4)cc3c2C(C)C)c(C)cn1 [Example 851, 1-(4-(2-(2,5-dimethylpyridin-4-yl)-3-isopropyl-1H-indol-5-yl)piperidin-1-yl)-2-methylpropan-2-ol]
– | – | – | 567 | 6.2 | 11.6 | Cc1cc(-c2[nH]c3cc(F)c(C4CCN(C5CCOCC5)CC4)cc3c2C(C)C)cc(C)n1 [Example 831, 2-(2,6-dimethylpyridin-4-yl)-6-fluoro-3-isopropyl-5-(1-(tetrahydro-2H-pyran-4-yl)piperidin-4-yl)-1H-indole]
2970 | 15.1 | 8.9 | – | – | – | Cc1cc(-c2[nH]c3ccc(C4CCNCC4)cc3c2C(C)C)c([N+](=O)[O-])c(C)n1 [Example 27, 2-(2,6-dimethyl-3-nitropyridin-4-yl)-3-isopropyl-5-(piperidin-4-yl)-1H-indole]
833 | 14.6 | 152 | – | – | – | Cc1cc(-c2[nH]c3ccc(C4CCN(C(=O)CN5C[C@@H](C(F)(F)F)C[C@H]5CO)CC4)cc3c2C(C)C)cc(C)n1 [Example 394, 1-(4-(2-(2,6-dimethylpyridin-4-yl)-3-isopropyl-1H-indol-5-yl)piperidin-1-yl)-2-((2S,4S)-2-(hydroxymethyl)-4-(trifluoromethyl)pyrrolidin-1-yl)ethan-1-one]
1480 | 77.8 | 285 | – | – | – | Cc1cc(-c2[nH]c3ccc(C4CCN(C(=O)CN(C)C)CC4)cc3c2CC(F)F)cc(C)n1 [Example 533, 1-(4-(3-(2,2-difluoroethyl)-2-(2,6-dimethylpyridin-4-yl)-1H-indol-5-yl)piperidin-1-yl)-2-(dimethylamino)ethan-1-one]
258 | 10 | 86.5 | – | – | – | CNCC(=O)N1CCC(c2ccc3[nH]c(-c4cc(C)nc(C)c4)c(CC(F)F)c3c2)CC1 [Example 535, 1-(4-(3-(2,2-difluoroethyl)-2-(2,6-dimethylpyridin-4-yl)-1H-indol-5-yl)piperidin-1-yl)-2-(methylamino)ethan-1-one]
607 | 9.8 | 13.8 | – | – | – | Cc1cc(-c2[nH]c3ccc(C4CCN(CC(=O)N5CCC(F)(F)CC5)CC4)cc3c2C(C)C)cc(C)n1 [Example 257, 1-(4,4-difluoropiperidin-1-yl)-2-(4-(2-(2,6-dimethylpyridin-4-yl)-3-isopropyl-1H-indol-5-yl)piperidin-1-yl)ethan-1-one]
23000 | 24.9 | 190 | – | – | – | Cc1cc(-c2[nH]c3ccc(C4CCN(C(=O)c5ccon5)CC4)cc3c2C(C)C)ccn1 [Example 604, (4-(3-isopropyl-2-(2-methylpyridin-4-yl)-1H-indol-5-yl)piperidin-1-yl)(isoxazol-3-yl)methanone]
553 | 10.5 | 46.2 | – | – | – | Cc1cc(-c2[nH]c3ccc(C4CCN(CC(=O)N(C)CC(O)c5ccccc5)CC4)cc3c2C(C)C)cc(C)n1 (stereo not drawn) [Example 296, 2-(4-(2-(2,6-dimethylpyridin-4-yl)-3-isopropyl-1H-indol-5-yl)piperidin-1-yl)-N-(2-hydroxy-2-phenylethyl)-N-methylacetamide]
47400 | 51.2 | 55.6 | – | – | – | Cc1cc(-c2[nH]c3ccc(C4CCN(Cc5nnc(C6CC6)o5)CC4)cc3c2C(C)C)cc(C)n1 [Example 448, 2-cyclopropyl-5-((4-(2-(2,6-dimethylpyridin-4-yl)-3-isopropyl-1H-indol-5-yl)piperidin-1-yl)methyl)-1,3,4-oxadiazole]
897 | 52.7 | 2.5 | – | – | – | Cc1cc(-c2[nH]c3ccc(C4CCNCC4)cc3c2C(C)C)c(CO)cn1 [Example 42, (4-(3-isopropyl-5-(piperidin-4-yl)-1H-indol-2-yl)-6-methylpyridin-3-yl)methanol]
539 | 3.2 | 22 | – | – | – | Cc1cc(-c2[nH]c3ccc(C4CCN(C(=O)CNC5CCCOC5)CC4)cc3c2C(C)C)cc(C)n1 (stereo not drawn) [Example 385, 1-(4-(2-(2,6-dimethylpyridin-4-yl)-3-isopropyl-1H-indol-5-yl)piperidin-1-yl)-2-((tetrahydro-2H-pyran-3-yl)amino)ethan-1-one]
282 | 790 | 117 | – | – | – | CCc1c(-c2ccnc(OC)c2)[nH]c2ccc(C3CCN(C4CCN(C5CCCC5)CC4)CC3)cc12 [Example 785, 5-(1′-cyclopentyl-[1,4′-bipiperidin]-4-yl)-3-ethyl-2-(2-methoxypyridin-4-yl)-1H-indole]
6210 | 13.6 | 2.2 | – | – | – | Cc1cc(-c2[nH]c3ccc(C4CCN(CCC#N)CC4)cc3c2C(C)C)c(C)cn1 [Example 665, 3-(4-(2-(2,5-dimethylpyridin-4-yl)-3-isopropyl-1H-indol-5-yl)piperidin-1-yl)propanenitrile]
1480 | 10.3 | 0.9 | – | – | – | Cc1cc(-c2[nH]c3ccc(C4CCN(Cc5ccn(C)n5)CC4)cc3c2C(C)C)c(F)cn1 [Example 692]
44600 | 5.4 | 131 | – | – | – | COCC(=O)N1CCC(c2ccc3[nH]c(-c4cc(C)nc(C)c4)c(C(C)C)c3c2)CC1 [Example 115, 1-(4-(2-(2,6-dimethylpyridin-4-yl)-3-isopropyl-1H-indol-5-yl)piperidin-1-yl)-2-methoxyethan-1-one]
82 | 212 | 11.2 | – | – | – | CCc1c(-c2ccncc2)[nH]c2ccc(C3CCN(C4CCN(C(C)C)CC4)CC3)cc12 [Example 804, 3-ethyl-5-(1′-isopropyl-[1,4′-bipiperidin]-4-yl)-2-(pyridin-4-yl)-1H-indole]
457 | 8.4 | 6.7 | – | – | – | Cc1cc(-c2[nH]c3ccc(C4CCN(Cc5ccccn5)CC4)cc3c2C(C)C)cc(C)n1 [Example 431, 2-(2,6-dimethylpyridin-4-yl)-3-isopropyl-5-(1-(pyridin-2-ylmethyl)piperidin-4-yl)-1H-indole]
1850 | 51.4 | 184 | – | – | – | Cc1cc(-c2[nH]c3ccc(C4CCN(C(=O)CS(C)(=O)=O)CC4)cc3c2C(C)C)ccn1 [Example 608, 1-(4-(3-isopropyl-2-(2-methylpyridin-4-yl)-1H-indol-5-yl)piperidin-1-yl)-2-(methylsulfonyl)ethan-1-one]
16700 | 73 | 162 | – | – | – | Cc1cc(-c2[nH]c3ccc(C4CCN(C(=O)C5CNC(=O)C5)CC4)cc3c2C(C)C)ccn1 (stereo not drawn) [Example 612, 4-(4-(3-isopropyl-2-(2-methylpyridin-4-yl)-1H-indol-5-yl)piperidine-1-carbonyl)pyrrolidin-2-one]
393 | 32.4 | 12.6 | – | – | – | Cc1cc(-c2[nH]c3ccc(C4CCN(C5CCNCC5C)CC4)cc3c2C(C)C)ccn1 (stereo not drawn) [Example 709, 3-isopropyl-5-(3′-methyl-[1,4′-bipiperidin]-4-yl)-2-(2-methylpyridin-4-yl)-1H-indole]
281 | 28.1 | 13.5 | – | – | – | Cc1cc(-c2[nH]c3ccc(C4CCN(Cc5[nH]cnc5C)CC4)cc3c2C(C)C)ccn1 [Example 744, 3-isopropyl-5-(1-((4-methyl-1H-imidazol-5-yl)methyl)piperidin-4-yl)-2-(2-methylpyridin-4-yl)-1H-indole]
553 | 5.8 | 23.5 | – | – | – | Cc1cc(-c2[nH]c3ccc(C4CCN(C(=O)CNCC(C)C)CC4)cc3c2C(C)C)cc(C)n1 [Example 338, 1-(4-(2-(2,6-dimethylpyridin-4-yl)-3-isopropyl-1H-indol-5-yl)piperidin-1-yl)-2-(isobutylamino)ethan-1-one]
– | – | – | 313 | 124 | 73.4 | CNCCN1CCC(c2ccc3[nH]c(-c4ccnc(C)c4)c(C)c3c2)CC1 [Example 815, N-methyl-2-(4-(3-methyl-2-(2-methylpyridin-4-yl)-1H-indol-5-yl)piperidin-1-yl)ethan-1-amine]
